In patent publication EP0684037B1, “Deodorant compositions” (UNILEVER PLC, priority 1994, dated 1995):

How the values were obtained:
lipoxidase (EC1.13.1.13) = biological target: T1, lipoxidase (EC1.13.1.13) (Glycine max, UniProt P08170); assay: Lipoxidase Inhibition Test (inhibition of the oxidation of linoleic acid by lipoxidase); type: biochemical; details: Lipoxidase Inhibiting Capacity; 0.5% by weight solution in ethanol of the material in test substrate solution; borate buffer pH 9.0; 234 nm
T1 sequence (P08170 1-839): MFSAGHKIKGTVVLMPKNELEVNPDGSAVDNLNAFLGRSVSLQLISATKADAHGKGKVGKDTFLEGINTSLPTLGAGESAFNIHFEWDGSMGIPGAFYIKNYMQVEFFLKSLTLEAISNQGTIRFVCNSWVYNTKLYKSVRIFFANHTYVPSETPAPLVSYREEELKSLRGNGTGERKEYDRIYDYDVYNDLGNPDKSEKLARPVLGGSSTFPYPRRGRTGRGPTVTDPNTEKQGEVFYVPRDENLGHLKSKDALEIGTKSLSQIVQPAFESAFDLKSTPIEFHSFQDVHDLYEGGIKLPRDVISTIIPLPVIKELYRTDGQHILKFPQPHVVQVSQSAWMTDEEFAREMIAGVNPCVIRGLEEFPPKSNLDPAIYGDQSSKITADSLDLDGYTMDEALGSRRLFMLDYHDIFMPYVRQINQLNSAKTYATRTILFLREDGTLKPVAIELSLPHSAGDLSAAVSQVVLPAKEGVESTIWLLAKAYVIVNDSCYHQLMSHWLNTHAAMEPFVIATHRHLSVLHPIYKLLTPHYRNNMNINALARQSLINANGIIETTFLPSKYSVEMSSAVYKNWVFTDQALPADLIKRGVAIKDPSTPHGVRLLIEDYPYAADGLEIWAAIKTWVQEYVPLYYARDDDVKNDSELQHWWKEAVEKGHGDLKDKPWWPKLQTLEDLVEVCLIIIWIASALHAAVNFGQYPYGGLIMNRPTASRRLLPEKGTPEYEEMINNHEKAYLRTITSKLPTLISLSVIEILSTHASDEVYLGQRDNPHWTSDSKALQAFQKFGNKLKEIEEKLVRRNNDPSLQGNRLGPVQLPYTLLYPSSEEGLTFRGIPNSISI
Procedure: In this test the capacity of a material to inhibit the oxidation of linoleic acid by lipoxidase (EC1.13.1.13) to form a hydroperoxide is measured.
Aqueous 0.2M sodium borate solution (pH 9.0) is used as buffer solution.
A control substrate solution is prepared by dissolving linoleic acid (2.0 ml) in absolute ethanol (60 ml), diluting with distilled water to 100 ml and then adding borate buffer (100 ml) and absolute ethanol (300 ml).
A test substrate solution is prepared in the same way as the control substrate solution except that for the absolute ethanol (300 ml) is substituted the same volume of a 0.5% by weight solution in ethanol of the material to be tested.
A solution of the enzyme lipoxidase in the borate buffer and having an activity within the range of from 15,000 to 40,000 units per ml is prepared.
The activity of the lipoxidase in catalysing the oxidation of linoleic acid is first assayed spectrophotometrically using the control. An automatic continuously recording spectrophotometer is used and the increase in extinction at 234 nm (the peak of hydroperoxide) is measured to follow the course of oxidation, the enzyme concentration used being such that it gives an increase in optical density (ΔOD) at 234 nm within the range of from 0.6 to 1.0 units per minute. The following ingredients are placed in two 3 ml cuvettes:
The lipoxidase solution is added to the control cuvette last and the reaction immediately followed spectrophotometrically for about 3 minutes, with recording of the increase in optical density at 234 nm as a curve on a graph.
The capacity of a material to inhibit the oxidation is then measured using a test sample containing enzyme, substrate and a deodorant material. The following ingredients are placed in two 3 ml cuvettes.
The lipoxidase solution is added to the test sample cuvette last and the course of the reaction immediately followed as before.
The lipoxidase-inhibiting capacity of the material is then calculated from the formula 100 (S1-S2)/S1, where S1 is the slope of the curve obtained with the control and S2 is the slope of the curve obtained with the test sample, and thus expressed as % inhibitor. A material that gives at least 50% inhibition in the test is hereafter referred to as having a lipoxidase-inhibiting capacity of at least 50%.

[1] = Morpholine Test (depression of the partial vapour pressure of morpholine, Raoult variance ratio); type: physicochemical; details: morpholine (0.25 g) and material (1 g), 37°C, headspace GC
Procedure: In this test the capacity of a material to depress the partial vapour pressure of morpholine more than that required by Raoult's Law is measured. Substances that undergo chemical reaction with morpholine, for example aldehydes, are to be regarded as excluded from the test.
Into a sample bottle of capacity 20 ml is introduced morpholine ([…]), the bottle fitted with a serum cap and then maintained at 37°C for 30 minutes for equilibrium to be reached. The gas in the headspace of the bottle is analysed by piercing the serum cap with a capillary needle through which nitrogen at 37°C is passed to increase the pressure in the bottle by a standard amount and then allowing the excess pressure to inject a sample from the headspace into gas chromatograph apparatus, which analyses it and provides a chromatographic trace curve with a peak due to morpholine, the area under which is proportional to the amount of morpholine in the sample.
The procedure is repeated under exactly the same conditions using instead of morpholine alone, morpholine (0.25 g) and the material to be tested (1 g); and also using the material (1 g) without the morpholine to check whether it gives an interference with the morpholine peak (which is unusual).
The procedure is repeated until reproducible results are obtained. The areas under the morpholine peaks are measured and any necessary correction due to interference by the material is made.
A suitable apparatus for carrying out the above procedure is a Perkin-Elmer Automatic GC Multifract F40 for Head Space Analysis. Further details of this method are described by Kolb in "CZ-Chemie-Technik", Vol 1, No 2, 87-91 (1972) and by Jentzsch et al in "Z. Anal. Chem." 236, 96-118 (1968).
The measured areas representing the morpholine concentration are proportional to the partial vapour pressure of the morpholine in the bottle headspace. If A is the area under the morpholine peak when only morpholine is tested and A' is the area due to morpholine when a material is present, the relative lowering of partial vapour pressure of morpholine by the material is given by 1-A'/A.
According to Raoult's Law, if at a given temperature the partial vapour pressure or morpholine in equilibrium with air above liquid morpholine is p, the partial vapour pressure p' exerted by morpholine in a homogeneous liquid mixture of morpholine and material at the same temperature is pM/(M+PC), where M and PC are the molar concentrations of morpholine and material.
The extend to which the behaviour of the mixture departs from Raoult's Law is given by the ratio (1-A'/A)/(87/(87+m/4)) [formula]
The above ratio, which will be referred to as the Raoult variance ratio, is calculated from the test results. Where a material is a mixture of compounds, a calculated or experimentally determined average molecular weight is used for m. A material that depresses the partial vapour pressure of morpholine by at least 10% more than that required by Raoult's Law in the Morpholine Test is one in which the Raoult variance ratio is at least 1.1.

| SMILES | LIC value (lipoxidase (EC1.13.1.13)) [%] | RVR value [1] |
| --- | --- | --- |
| O=c1ccc2ccccc2o1 [Coumarin] | 58 | 1.22 |
| OCCc1ccccc1 [Phenylethyl alcohol] | 22 | 1.24 |
| COc1ccc2ccccc2c1 [β-Naphthyl methyl ether] | 100 | – |
| CCOc1cc(C=O)ccc1O [Ethyl vanillin] | 100 | 1.43 |

Further lines, results first:

| LIC value (lipoxidase (EC1.13.1.13)) [%] | RVR value [1] | SMILES |
| --- | --- | --- |
| 54 | 0.98 | CC(=O)OC1CCC(C(C)(C)C)CC1 (centres unmarked) [p-t-Butyl cyclohexyl acetate] |
| 74 | – | CC(C=O)Cc1ccc(C(C)(C)C)cc1 (stereo not drawn) [p-t-Butyl-α-methyl hydrocinnamic aldehyde] |
| 0 | 1.58 | O=C(OCc1ccccc1)c1ccccc1O [Benzyl salicylate] |
| 100 | 1.21 | COC(=O)c1c(C)cc(O)c(C)c1O [LRG 201] |
